{"source": "patent US9422262B2", "about": "“Compounds and methods for treating diseases mediated by protease activated receptors” (The Broad Institute, Inc., priority 2010, dated 2016)", "key": {"[1]": {"target": "T1, Par1 (thrombin) receptor (Homo sapiens, UniProt P25116)", "T1 construct": "endogenous in cells; host or cells: platelets (platelet-rich plasma; washed platelets from individual donors)", "T1 sequence (P25116 22-425)": "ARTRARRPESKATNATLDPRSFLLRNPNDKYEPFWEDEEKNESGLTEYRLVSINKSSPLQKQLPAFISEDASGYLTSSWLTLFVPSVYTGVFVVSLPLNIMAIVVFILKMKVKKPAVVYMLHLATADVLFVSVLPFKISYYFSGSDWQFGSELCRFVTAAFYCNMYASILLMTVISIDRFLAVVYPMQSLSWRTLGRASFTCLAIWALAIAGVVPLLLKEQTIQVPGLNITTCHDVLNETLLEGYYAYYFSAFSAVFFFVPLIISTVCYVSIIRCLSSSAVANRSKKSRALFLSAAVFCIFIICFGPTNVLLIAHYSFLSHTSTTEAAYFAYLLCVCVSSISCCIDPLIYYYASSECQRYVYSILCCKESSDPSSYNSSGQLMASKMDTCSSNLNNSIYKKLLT", "test": "SFLLRN-mediated granule secretion, platelet-rich plasma, luciferin-luciferase ATP readout (primary assay)", "assay_type": "cell-based", "details": "two retests of the probe; platelet-rich plasma; read-out: IC50, SFLLRN-mediated granule secretion", "protocol": "The compounds were tested in two independent IC50 determination experiments using the primary assay measuring SFLLRN-mediated granule secretion. For this assay, platelet-rich plasma is treated with putative inhibitors prior to activation by the SFLLRN peptide, which targets the Par1 (thrombin) receptor. Upon activation, platelets secrete dense granules, which are concentrated with ATP. Platelet activation and possible inhibition are monitored by a luciferin-luciferase assay (CellTiter-Glo without lysis reagent) to measure the ATP secreted from activated platelets. Luminescence measurements are made using a plate reader (Envision, PerkinElmer) capable of detecting luminescence."}, "[2]": {"system": "cAMP production", "test": "cAMP production in washed platelets (competitive immunoassay)", "assay_type": "cell-based, human", "details": "10 μM, PGE1 as control", "protocol": "For this assay, platelets obtained from individual donors were washed and incubated with the probe. Platelets exposed to PGE1 (which causes elevation of platelet cAMP levels) are used as controls. Following incubation, platelets are lysed and evaluated in a commercially available competitive immunoassay of cAMP. Compounds that raise cAMP levels less than 50% of that of PGE1 are considered negative in this assay."}, "[3]": {"system": "platelets", "test": "PMA- or Ca2+ ionophore-induced platelet activation (P-selectin, flow cytometry)", "assay_type": "cell-based, human", "details": "washed platelets, 6 point dose curve", "protocol": "For these assays, the probe is incubated with washed platelets obtained from individual donors in a 6 point dose curve. Platelets are subsequently stimulated with either PMA or Ca2+ ionophore. After 15 minutes, phycoerythrin-labeled anti-P-selectin antibody (BD Biosciences) is added to the incubation mixture. Following a 20-minute incubation, a sample is analyzed by flow cytometry for staining of P-selectin."}, "[4]": {"system": "platelets", "test": "P-selectin surface expression on platelets activated with other platelet agonists", "assay_type": "cell-based, human", "details": "FIG. 1A", "protocol": "(§1) To confirm the specificity of compound 1 for PAR1, platelets were incubated with compound 1 and subsequently activated with a variety of platelet agonists. P-selectin surface expression was monitored to detect platelet activation. […] In contrast, an IC50 for inhibition of other agonists was not reached even at concentrations >30-fold its IC50 for PAR1-mediated secretion. To further evaluate whether PAR1 is the target of compound 1, we tested the ability of the compound to inhibit Ca^2+ flux in HEK293 cells overexpressing recombinant PAR1."}, "[5]": {"system": "permeabilized platelets", "test": "GTP-γ-S induced P-selectin surface expression in permeabilized platelets", "assay_type": "cell-based, human", "details": "FIG. 1C", "protocol": "as §1"}, "[6]": {"system": "Gαq-mediated Ca2+ flux", "test": "SFLLRN-induced Gαq-mediated Ca2+ flux in MDCK cells", "assay_type": "cell-based", "details": "FIG. 3C", "source_text": "This pattern of inhibition is consistent with that of an allosteric inhibitor. […] This observation raised the possibility that compound 1 blocks PAR1 signaling through Gαq (which mediates platelet aggregation downstream of PAR1), but not Gα12/13 (which mediates shape change downstream of PAR1). A previously identified PAR1 inhibitor, 3,5-difluoro aminoisoxazole (3,5-DFAI), inhibited both shape change and aggregation. Shape change that occurred in the presence of compound 1 was blocked by the Rho kinase inhibitor Y27632, confirming participation of Rho kinase downstream of Gα12/13 in compound-1-resistance shape change (FIG. 3A). […] PAR1-mediated decrease in TER in these cells is dependent on Gα12. […] In contrast, 3,5-DFAI inhibited SFLLRN-mediated decrease in TER (FIG. 3B) and compound 1 inhibited Gαq-mediated Ca^2+ flux in these MDCK cells (FIG. 3C)."}, "[7]": {"target": "T2, mouse PAR4 (Mus musculus, UniProt O88634)", "T2 construct": "Aggregation studies using mouse platelets; endogenous in cells; host or cells: mouse platelets", "T2 sequence (O88634 17-396)": "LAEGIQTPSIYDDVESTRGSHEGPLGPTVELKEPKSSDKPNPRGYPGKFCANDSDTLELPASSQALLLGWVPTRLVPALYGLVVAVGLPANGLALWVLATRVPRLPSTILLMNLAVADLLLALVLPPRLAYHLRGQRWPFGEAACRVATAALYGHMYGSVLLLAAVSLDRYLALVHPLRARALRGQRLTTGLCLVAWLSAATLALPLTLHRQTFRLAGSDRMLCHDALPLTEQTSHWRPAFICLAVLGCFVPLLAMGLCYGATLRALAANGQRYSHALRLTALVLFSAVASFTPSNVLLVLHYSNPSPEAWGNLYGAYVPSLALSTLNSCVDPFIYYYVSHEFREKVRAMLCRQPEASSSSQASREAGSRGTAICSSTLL", "test": "PAR4-mediated aggregation of mouse platelets", "assay_type": "cell-based", "details": "FIG. 4A"}, "[8]": {"target": "T3, PAR1 (Homo sapiens, UniProt P25116)", "T3 sequence (P25116 22-425)": "T1 sequence (P25116 22-425)", "test": "Ca2+ flux in HEK293 cells overexpressing recombinant PAR1", "assay_type": "cell-based", "parameters": "expressed in transfected cells; host or cells: HEK293", "details": "concentrations similar to those for inhibition of P-selectin expression; FIG. 1B"}, "[9]": {"target": "T3, PAR1", "test": "P-selectin surface expression on washed platelets stimulated with SFLLRN (flow cytometry)", "assay_type": "cell-based", "parameters": "endogenous in cells; host or cells: platelets (platelet-rich plasma; washed platelets from individual donors)", "protocol": "For this assay, the probe is incubated with washed platelets obtained from individual donors. Platelets are subsequently stimulated with 5 μM SFLLRN. After 15 minutes, phycoerythrin-labeled anti-P-selectin antibody (BD Biosciences) is added to the incubation mixture. Following a 20-minute incubation, a sample is analyzed by flow cytometry for staining of P-selectin.\nP-selectin surface expression was monitored to detect platelet activation."}}, "note": "“And” between values parts separate entries of the source, which are not always exact repeats. Equal entries are not always repeated."}
{"compound": "CCCC(=O)Nc1cccc(NC(=O)c2ccccc2Br)c1", "note": "[Compound 1]", "values": [{"measurement": "IC50", "setting": "[1]", "value": "4.87 µM and 5.28 µM"}, {"measurement": "modulation of cAMP production", "setting": "[2]", "value": "inactivity"}, {"measurement": "effect on Ca2+ ionophore-induced activation of platelets", "setting": "[3]", "value": "did not show any effect"}, {"measurement": "effect on PMA-induced activation of platelets", "setting": "[3]", "value": "did not show any effect"}, {"measurement": "concentration tested without reaching an IC50 for other agonists, relative to IC50 for PAR1-mediated secretion", "setting": "[4]", "value": "> 30", "unit": "fold"}, {"measurement": "IC50 for inhibition of other agonists", "setting": "[4]; P-selectin surface expression", "value": "not reached"}, {"measurement": "P-selectin surface expression induced by GTP-γ-S", "setting": "[5]", "value": "fails to inhibit"}, {"measurement": "Gαq-mediated Ca2+ flux", "setting": "[6]", "value": "inhibited"}, {"measurement": "PAR4-mediated aggregation of mouse platelets", "setting": "[7]", "value": "inhibits"}, {"measurement": "changes in Ca2+ flux in HEK293 cells overexpressing recombinant PAR1", "setting": "[8]", "value": "inhibits"}, {"measurement": "inhibition of the expression of P-selectin", "setting": "[9]; 1 μM compound, washed platelets, activation with 5 μM SFLLRN", "value": 90, "unit": "%"}, {"measurement": "IC50", "setting": "[9]; FIG. 1A, read-out: IC50, activation mediated through PAR1 (P-selectin surface expression)", "value": "~0.3", "unit": "µM"}, {"measurement": "pattern of inhibition of PAR1-mediated platelet activation", "setting": "[9]; varying concentrations of compound and SFLLRN, FIG. 2", "value": "non-competitive inhibition"}]}
